Data from patent publication US20100240746A1, “STEREOISOMERS OF TRICYCLODECAN-9-YL-XANTHOGENATE” (LUMAVITA AG, priority 2007, published 2010).
In brackets after ≈: the same amount, converted by molar mass. Entries after “also recorded” stand apart in the source; their conditions may differ. Read-outs that look alike come from different tables or passages of the source.

Tests used:
[1] = test system: A431 cells (epithelial cancer cells); assay: Long-term study, growth of HPV-uninfected control A431 cells over 9 passages; type: cell-based, human
Procedure: (§1) HPV-31 infected cells (3×10^6) were dispensed into 14.5 cm dishes containing fresh E medium and 1×10^6 cells of mitomycin C-treated 3T3 fibroblast feeders. The dishes were incubated in a CO2 incubator under 5% CO2 at 37° C. in 100% humidity. Human A431 epithelial cancer cells were used as HPV-uninfected negative controls. After 6 hr incubation, the cell culture medium was removed and fresh E medium containing 0.85 g/L NaHCO3 and a test compound at concentrations of 10 and 3.3 μg/mL, or control (interferon γ at 200 IU/mL) were added. For each concentration, 4 dishes were prepared. The dishes were incubated at 37° C. in a CO2 incubator. The culture medium was replaced to new E medium containing each concentration of the test compound or control in every 72 hrs. After seven days, or when untreated cells became confluent, one dish of each group was harvested for DNA/RNA extraction, followed by Southern/Northern Blot analysis; and one dish was trypsinized, cell number were determined and cells were seeded in three new dishes, treated and cultured as described above. This procedure was repeated for 9 passages. During these passages, morphology of cells and cell density were monitored.
(§2) Effect on cell proliferation. Cell numbers in the dishes harvested were determined in a Neubauer hematocytometer. The multiplication factor was determined at every step of passage. The cell number of each culture at the end of the passage was divided by the number of seeded cells at the start of each passage. The end point was reached when keratinocytes treated with a test compound stopped growing. Stop of cell growth was defined as a multiplication factor of no greater than 1.

[2] = test system: HPV-31-infected CIN612 9E keratinocytes; assay: Long-term study, effect on cell proliferation of CIN612 9E cells over 9 passages; type: cell-based, human papilloma virus
Procedure: as §1, §2

[3] = test system: Herpes simplex virus type-2 (HSV-2); assay: Inhibition of HSV-2 (plaque assay; Calu-6 infected, RITA cells for plaques); type: cell-based
Procedure: Calu-6 cells and RITA cells were grown in DMEM cell culture medium containing 10% fetal calf serum in CO2 incubator under 5% CO2 at 37° C. with 100% humidity.
For HSV-2 inhibition, Calu-6 cells were seeded in 96 well plates at a density of 3×10^6 cells per plate in the DMEM cell culture medium. The plates were incubated at 37° C. in the presence of 5% CO2 for 24 hr. The DMEM cell culture medium in the plates was removed and the cells were infected with Herpes simplex virus type-2 at 50 plaque forming units per well. After incubation at 37° C. for 60 min, test compounds in DMEM cell culture medium at a series of concentrations were added. The plates were incubated at 37° C. in the presence of 5% CO2 for 48 hr. The plates were frozen at −20° C. prior to further analysis. After thawing at room temperature, supernatants containing infectious virus particles were prepared by centrifuging the supernatant from each well at 18,000 g at 4° C. for 5 min. The supernatant was further diluted before assay.
RITA cells were seeded in 24 well Linbra plates at a density of 4×10^6 cells per plate in 2 mL of DMEM cell culture medium. The plates were incubated at 37° C. in the presence of 5% CO2 for 24 hr. After the removal of the cell culture medium, 0.1 mL of the diluted supernatants was added and the plates were incubated at 37 C for 1 hr. DMEM cell medium containing 10% fetal calf serum and 0.5% methyl cellulose was added and the plates were incubated at 37 for 48 hr. The plates were then washed with PBS, fixed with 3% formaldehyde solution containing 0.9% NaCl for 1 min, washed by water for 10 sec, and dried overnight. For detection, the plates were then stained with crystal violet solution for 5 min at room temperature, washed 5 times with water, and dried at room temperature overnight. The number of plaques was determined macroscopically. The number of plaques per well was then multiplied with the dilution factor. Dose response curves were obtained by plotting the number of plaques/0.1 mL against compound concentration. The therapeutic index was also calculated for each compound by dividing LD50 with IC50.

[4] = test system: actin specific RNA; assay: Short-term study, effect on control RNA expression; type: cell-based; conditions: 0-32 μg/mL, 72 hrs
Procedure: (§3) Effect on HPV-31 specific DNA and RNA. HPV-31 infected cells (3×10^6) were dispensed into 14.5 cm dishes containing fresh E culture medium and 1×10^6 mitomycin C-treated J2 3T3 fibroblast feeders. After 6 hrs, fresh medium containing 0.85 g/L NaHCO3 and a test compound at a series of concentrations (0, 0.5, 1, 2, 4, 8, 16, and 32 μg/mL) were added. All samples were tested in duplicates at each concentration. After incubation at 37° C. for 72 hrs, the feeder cells were removed with 4 mM EDTA, and DNA and RNA was then isolated. The isolated DNA and RNA were analyzed in Southern and Northern Blot gels for HPV-31 specific sequences. Human A431 epithelial cancer cells were used as HPV-uninfected negative control. X-ray films were scanned and optical densities of HPV-31 specific DNA and major mRNA species were integrated.
(§4) Dose response curves were established by plotting integrated values against the concentrations of the test compound.

[5] = test system: HPV-31 specific RNA in HPV-31-infected CIN612 9E keratinocytes; assay: Short-term study, inhibition of HPV-31 specific RNA expression (Northern Blot); type: cell-based, human papilloma virus; conditions: Human papillomavirus, Keratinocyte; 72 hrs, 37° C.
Procedure: The inhibitory activities of optically active (−)-enantiomer 1A against human papilloma virus were evaluated using HPV-31-infected CIN612 9E keratinocytes (Meyers et al., Science 1992, 257, 971-973).
as §3, §4

[6] = test system: HPV-31 specific DNA in HPV-31-infected CIN612 9E keratinocytes; assay: Long-term study, HPV-31 specific DNA (Southern Blot); type: cell-based, human papilloma virus
Procedure: as §1
Effect on HPV-31 specific DNA and RNA: DNA and RNA were analyzed in Southern and Northern Blot gels for HPV-31 specific sequences. X-ray films were scanned and optical densities of HPV-31 specific DNA and major mRNA species were integrated. Time curves were established by plotting integrated values against number of passages for each treatment dose. The T50 (time required to reduce the level to 50% of control) was determined from the time curves from crossing points of time curves with a line parallel to the x-axis corresponding to 50% of integrals of untreated control sample.

[7] = test system: CIN 612 9E cells; assay: Long-term study, cell morphology; type: cell-based, human papilloma virus; conditions: 10 μg/mL, after five passages
Procedure: as §1

With `S=C(S)OC1CC2CC1C1CCCC21` (single isomer, unassigned; (-)) [(−)-Enantiomer 1A, (−)-O-exo/C-exo-tricyclo[5.2.1.0^2,6]-dec-9-yl-xanthic acid] the cell growth ([1]; 3.3 μg/mL) was “slight inhibition of cell growth”, the cell growth ([1]; 10 μg/mL) was “slight inhibition of cell growth” and the cell growth ([1]; overall) was “only minor effects on cell growth”. For the same compound, the growth ([2]; 3.3 μg/mL) was “reduction of the growth rate; also recorded: the cells almost stopped growing after 9 passages”, the cell proliferation ([2]; 10 μg/mL) was “significant reduction of cell proliferation” and the multiplication factor ([2]; 10 μg/mL, first five passages) was 2-2.5. For the same compound, the IC50 ([3]; Calu-6 cells, 48 hr, 50 plaque forming units per well) was 9.08 ± 3.40 µg/mL (≈ 39.8 µM), the “Therapeutic Index” value ([3]; LD50 (Calu-6) divided by IC50 (HSV-2), 2880 min) was 10.4 and the “expression of the control RNA (actin specific RNA)” value [4] was “only affected at the highest concentration of 32 μg/mL”. For the same compound, the IC50 [5] was 10.7 µg/mL (≈ 46.9 µM), the “T50 DNA” value ([6]; 3.3 μg/mL) was 2.23 passages and the “HPV-31 specific DNA content” value ([6]; 3.3 μg/mL or 10 μg/mL) was “continuous reductions”. For the same compound, the “T50 DNA” value ([6]; 10 μg/mL, listed as (−)-enantiomer 1A) was less than 1 passages, the “T50 DNA” value ([6]; 10 μg/mL, listed as Cmpd 1A) was less than 1 passages and the activity at 10 µg/mL ([6]; Human papillomavirus, Keratinocyte, 10 μg/mL, after 6 passages, read-out: number of viral genomes per cell, reduced to) was less than 5%. The activity at 10 µg/mL ([6]; Human papillomavirus, Keratinocyte, 10 μg/mL, after 9 passages, read-out: viral DNA remaining) was less than 1%, the inhibition at 10 µg/mL ([6]; Human papillomavirus, Keratinocyte, 10 μg/mL, after a single passage, read-out: reduction of number of viral genomes per cell) was greater than 50% and the morphology of cells [7] was “notable change in the morphology; also recorded: growing more organized like untransformed keratinocytes; also recorded: contact inhibited when cultures grew to confluency; also recorded: acquired a flat round shape”.
